Test results published in patent US20100099561A1, “HETEROBICYCLIC ALKYLTHIO-BRIDGED ISOXAZOLINES” (E.I. DU PONT DE NEMOURS AND COMPANY, priority 2008, published 2010).

Tests used:
Assay type in all cases: in vivo
[1] = tested on: nightshade (eastern black nightshade, Solanum ptycanthum); assay: Test B preemergence, nightshade; conditions: scale 0 to 100
Description: (§1) Seeds of plant species selected from blackgrass (Alopecurus myosuroides), downy bromegrass (Bromus tectorum), green foxtail (Setaria viridis), Italian ryegrass (Lolium multiflorum), wheat (Triticum aestivum), wild oat (Avena fatua), catchweed bedstraw (Galium aparine), bermudagrass (Cynodon dactylon), Surinam grass (Brachiaria decumbens), cocklebur (Xanthium strumarium), corn (Zea mays), large crabgrass (Digitaria sanguinalis), woolly cupgrass (Eriochloa villosa), giant foxtail (Setaria faberii), goosegrass (Eleusine indica), johnsongrass (Sorghum halepense), kochia (Kochia scoparia), lambsquarters (Chenopodium album), morningglory (Ipomoea coccinea), nightshade (eastern black nightshade, Solanum ptycanthum), yellow nutsedge (Cyperus esculentus), pigweed (Amaranthus retroflexus), ragweed (common ragweed, Ambrosia elatior), soybean (Glycine max), sunflower (common oilseed sunflower, Helianthus annuus), Russian thistle (Salsola kali), and velvetleaf (Abutilon theophrasti) were planted into a blend of loam soil and sand and treated preemergence with test compounds formulated in a non-phytotoxic solvent mixture which included a surfactant. Treated plants and controls were maintained in a greenhouse for 13 to 15 days, after which time all species were compared to controls and visually evaluated. Plant response ratings, summarized in Table B, are based on a scale of 0 to 100 where 0 is no effect and 100 is complete control. A dash (-) response means no test result.

[2] = tested on: lambsquarters (Chenopodium album); assay: Test B preemergence, lambsquarters; conditions: scale 0 to 100
Description: as §1

[3] = tested on: wheat (Triticum aestivum); assay: Test A postemergence, wheat; conditions: 0 to 100 scale (0 no effect, 100 complete control)
Summary of the method: (§2)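 Pre: directed soil spray after sowing in loam/sand. Post: seedlings at 1–2 leaf stage, 2–10 cm. Vehicle: non-phytotoxic solvent mix + surfactant. Greenhouse ~10 d; visual injury 0–100 vs untreated controls.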

[4] = tested on: barnyardgrass (Echinochloa crus-galli); assay: Test A postemergence, barnyardgrass; conditions: 0 to 100 scale (0 no effect, 100 complete control)
Summary of the method: as §2

[5] = tested on: pigweed (Amaranthus retroflexus); assay: Test A preemergence, pigweed; conditions: 0 to 100 scale (0 no effect, 100 complete control)
Summary of the method: as §2

[6] = tested on: umbrella sedge (Cyperus difformis); assay: Test B flooded paddy test, umbrella sedge; conditions: Flood, scale 0 to 100
Summary of the method: (§3)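 Step one: raise plants to 2 leaves. Step two: flood pots 3 cm over the soil and apply compound into the water, keeping this depth. Step three: after 13–15 greenhouse days, score visually versus controls, 0–100, where 100 means complete control.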

[7] = tested on: johnsongrass (Sorghum halepense); assay: Test B preemergence, johnsongrass; conditions: scale 0 to 100
Description: as §1

soybean (Glycine max) = assay: Test B preemergence, soybean; conditions: Preemergence, scale 0 to 100
Summary of the method: (§4)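 Visual injury rating, 0 (no effect) to 100 (complete control), made versus controls after 13 to 15 days in the greenhouse. Compounds were applied preemergence in a surfactant-containing non-phytotoxic solvent to seeds planted in loam/sand soil.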

[8] = tested on: large crabgrass (Digitaria sanguinalis); assay: Test A preemergence, large crabgrass; conditions: 0 to 100 scale (0 no effect, 100 complete control)
Summary of the method: as §2

[9] = tested on: ducksalad (Heteranthera limosa); assay: Test B flooded paddy test, ducksalad; conditions: Flood, scale 0 to 100
Summary of the method: as §3

[10] = tested on: Italian ryegrass (Lolium multiflorum); assay: Test B preemergence, Italian ryegrass; conditions: Preemergence, scale 0 to 100
Summary of the method: as §4

corn (Zea mays) = assay: Test B preemergence, corn; conditions: scale 0 to 100
Description: as §1

[11] = tested on: velvetleaf (Abutilon theophrasti); assay: Test A preemergence, velvetleaf; conditions: 0 to 100 scale (0 no effect, 100 complete control)
Summary of the method: as §2

[12] = tested on: wheat (Triticum aestivum); assay: Test A preemergence, wheat; conditions: 0 to 100 scale (0 no effect, 100 complete control)
Summary of the method: as §2

[13] = tested on: barnyardgrass (Echinochloa crus-galli); assay: Test B flooded paddy test, barnyardgrass; conditions: Flood
Summary of the method: as §3

[14] = tested on: barnyardgrass (Echinochloa crus-galli); assay: Test A preemergence, barnyardgrass; conditions: 0 to 100 scale (0 no effect, 100 complete control)
Summary of the method: as §2

[15] = tested on: velvetleaf (Abutilon theophrasti); assay: Test A postemergence, velvetleaf; conditions: 0 to 100 scale (0 no effect, 100 complete control)
Summary of the method: as §2

[16] = tested on: giant foxtail (Setaria faberii); assay: Test B preemergence, giant foxtail; conditions: scale 0 to 100
Description: as §1

[17] = tested on: morningglory (Ipomoea coccinea); assay: Test B preemergence, morningglory; conditions: scale 0 to 100
Description: as §1

[18] = tested on: Surinam grass (Brachiaria decumbens); assay: Test B preemergence, Surinam grass; conditions: Preemergence, scale 0 to 100
Summary of the method: as §4

[19] = 250 g ai/ha, scale 0 to 100 (0 no effect, 100 complete control)

CC1(C)CC(S(=O)(=O)Cc2c(C(F)(F)F)nc3n(c2=O)CCC3)=NO1 [Compound 11, 3-[[(4,5-dihydro-5,5-dimethyl-3-isoxazolyl)sulfonyl]methyl]-7,8-dihydro-2-(trifluoromethyl)pyrrolo[1,2-α]pyrimidin-4(6H)-one]
30: Plant response rating, Pigweed ([5]; 125 g ai/ha)
65: Plant response rating, Johnsongrass ([7]; 62 g ai/ha) | Plant response rating, Morningglory ([17]; 31 g ai/ha)
50: Plant response rating, Velvetleaf ([15]; 125 g ai/ha)
100: Plant response rating, Lambsquarters ([2]; 125 g ai/ha) | Plant response rating, Pigweed ([5]; 500 g ai/ha) | Plant response rating, Foxtail, Giant ([16]; 125 g ai/ha)
90: Plant response rating, Barnyardgrass ([4]; 500 g ai/ha) | Plant response rating, Johnsongrass ([7]; 125 g ai/ha) | Plant response rating, Crabgrass, Large ([8]; 500 g ai/ha) | Plant response rating, Ryegrass, Italian ([10]; 125 g ai/ha) | Plant response rating, Barnyardgrass ([14]; 500 g ai/ha)
10: Plant response rating, Velvetleaf ([11]; 125 g ai/ha)
98: Plant response rating, Nightshade ([1]; 125 g ai/ha)
95: Plant response rating, Nightshade ([1]; 62 g ai/ha) | Plant response rating, Foxtail, Giant ([16]; 62 g ai/ha) | Plant response rating, Morningglory ([17]; 125 g ai/ha)
0: Plant response rating, Nightshade ([1]; 16 g ai/ha) | Plant response rating, Lambsquarters ([2]; 16 g ai/ha) | Plant response rating, Lambsquarters ([2]; 31 g ai/ha) | Plant response rating, Lambsquarters ([2]; 62 g ai/ha) | Plant response rating, Sedge, Umbrella ([6]; 31 g ai/ha) | Plant response rating, Sedge, Umbrella ([6]; 62 g ai/ha) | Plant response rating, Sedge, Umbrella ([6]; 125 g ai/ha) | Plant response rating, Johnsongrass ([7]; 16 g ai/ha) | Plant response rating, Soybean (soybean (Glycine max); 16 g ai/ha) | Plant response rating, Soybean (soybean (Glycine max); 31 g ai/ha) | Plant response rating, Soybean (soybean (Glycine max); 62 g ai/ha) | Plant response rating, Soybean (soybean (Glycine max); 125 g ai/ha) | Plant response rating, Ducksalad ([9]; 31 g ai/ha) | Plant response rating, Ducksalad ([9]; 62 g ai/ha) | Plant response rating, Ducksalad ([9]; 125 g ai/ha) | Plant response rating, Ryegrass, Italian ([10]; 16 g ai/ha) | Plant response rating, Ryegrass, Italian ([10]; 31 g ai/ha) | Plant response rating, Ryegrass, Italian ([10]; 62 g ai/ha) | Plant response rating, Corn (corn (Zea mays); 16 g ai/ha) | Plant response rating, Corn (corn (Zea mays); 31 g ai/ha) | Plant response rating, Corn (corn (Zea mays); 62 g ai/ha) | Plant response rating, Corn (corn (Zea mays); 125 g ai/ha) | Plant response rating, Wheat ([12]; 125 g ai/ha) | Plant response rating, Barnyardgrass ([13]; 31 g ai/ha, scale 0 to 100) | Plant response rating, Barnyardgrass ([13]; 62 g ai/ha, scale 0 to 100) | Plant response rating, Barnyardgrass ([13]; 125 g ai/ha, scale 0 to 100) | Plant response rating, Foxtail, Giant ([16]; 16 g ai/ha) | Plant response rating, Morningglory ([17]; 16 g ai/ha) | Plant response rating, Surinam Grass ([18]; 16 g ai/ha) | Plant response rating, Surinam Grass ([18]; 31 g ai/ha) | Plant response rating, Surinam Grass ([18]; 62 g ai/ha)
35: Plant response rating, Ducksalad ([9]; 250 g ai/ha)
85: Plant response rating, Surinam Grass ([18]; 125 g ai/ha)
40: Plant response rating, Foxtail, Giant ([16]; 31 g ai/ha)
20: Plant response rating, Wheat ([3]; 125 g ai/ha) | Plant response rating, Sedge, Umbrella ([6]; 250 g ai/ha) | Plant response rating, Barnyardgrass [13, 19]
80: Plant response rating, Barnyardgrass ([4]; 125 g ai/ha) | Plant response rating, Crabgrass, Large ([8]; 125 g ai/ha) | Plant response rating, Velvetleaf ([15]; 500 g ai/ha) | Plant response rating, Morningglory ([17]; 62 g ai/ha)
60: Plant response rating, Nightshade ([1]; 31 g ai/ha) | Plant response rating, Wheat ([3]; 500 g ai/ha) | Plant response rating, Johnsongrass ([7]; 31 g ai/ha) | Plant response rating, Velvetleaf ([11]; 500 g ai/ha) | Plant response rating, Wheat ([12]; 500 g ai/ha) | Plant response rating, Barnyardgrass ([14]; 125 g ai/ha)

CC1(C)CC(S(=O)(=O)Cc2c(C(F)(F)F)nc3ccsn3c2=O)=NO1 [Compound 16]
80: Plant response rating, Barnyardgrass ([4]; 125 g ai/ha) | Plant response rating, Barnyardgrass ([14]; 500 g ai/ha) | Plant response rating, Foxtail, Giant ([16]; 31 g ai/ha)
55: Plant response rating, Surinam Grass ([18]; 31 g ai/ha)
85: Plant response rating, Nightshade ([1]; 62 g ai/ha) | Plant response rating, Johnsongrass ([7]; 62 g ai/ha)
30: Plant response rating, Ryegrass, Italian ([10]; 62 g ai/ha) | Plant response rating, Velvetleaf ([15]; 125 g ai/ha)
50: Plant response rating, Wheat ([3]; 500 g ai/ha) | Plant response rating, Velvetleaf ([11]; 125 g ai/ha) | Plant response rating, Barnyardgrass ([14]; 125 g ai/ha)
45: Plant response rating, Johnsongrass ([7]; 31 g ai/ha)
0: Plant response rating, Nightshade ([1]; 16 g ai/ha) | Plant response rating, Nightshade ([1]; 31 g ai/ha) | Plant response rating, Lambsquarters ([2]; 16 g ai/ha) | Plant response rating, Lambsquarters ([2]; 31 g ai/ha) | Plant response rating, Lambsquarters ([2]; 62 g ai/ha) | Plant response rating, Wheat ([3]; 125 g ai/ha) | Plant response rating, Sedge, Umbrella ([6]; 62 g ai/ha) | Plant response rating, Johnsongrass ([7]; 16 g ai/ha) | Plant response rating, Soybean (soybean (Glycine max); 16 g ai/ha) | Plant response rating, Soybean (soybean (Glycine max); 31 g ai/ha) | Plant response rating, Soybean (soybean (Glycine max); 62 g ai/ha) | Plant response rating, Soybean (soybean (Glycine max); 125 g ai/ha) | Plant response rating, Ryegrass, Italian ([10]; 16 g ai/ha) | Plant response rating, Ryegrass, Italian ([10]; 31 g ai/ha) | Plant response rating, Corn (corn (Zea mays); 16 g ai/ha) | Plant response rating, Corn (corn (Zea mays); 31 g ai/ha) | Plant response rating, Corn (corn (Zea mays); 62 g ai/ha) | Plant response rating, Corn (corn (Zea mays); 125 g ai/ha) | Plant response rating, Wheat ([12]; 125 g ai/ha) | Plant response rating, Wheat ([12]; 500 g ai/ha) | Plant response rating, Barnyardgrass ([13]; 62 g ai/ha, scale 0 to 100) | Plant response rating, Barnyardgrass [13, 19] | Plant response rating, Foxtail, Giant ([16]; 16 g ai/ha) | Plant response rating, Morningglory ([17]; 16 g ai/ha) | Plant response rating, Morningglory ([17]; 31 g ai/ha) | Plant response rating, Morningglory ([17]; 62 g ai/ha) | Plant response rating, Morningglory ([17]; 125 g ai/ha) | Plant response rating, Surinam Grass ([18]; 16 g ai/ha)
98: Plant response rating, Lambsquarters ([2]; 125 g ai/ha) | Plant response rating, Foxtail, Giant ([16]; 125 g ai/ha) | Plant response rating, Surinam Grass ([18]; 125 g ai/ha)
95: Plant response rating, Nightshade ([1]; 125 g ai/ha) | Plant response rating, Johnsongrass ([7]; 125 g ai/ha) | Plant response rating, Surinam Grass ([18]; 62 g ai/ha)
60: Plant response rating, Ryegrass, Italian ([10]; 125 g ai/ha) | Plant response rating, Velvetleaf ([11]; 500 g ai/ha) | Plant response rating, Velvetleaf ([15]; 500 g ai/ha)
90: Plant response rating, Barnyardgrass ([4]; 500 g ai/ha) | Plant response rating, Crabgrass, Large ([8]; 125 g ai/ha) | Plant response rating, Crabgrass, Large ([8]; 500 g ai/ha) | Plant response rating, Foxtail, Giant ([16]; 62 g ai/ha)
100: Plant response rating, Pigweed ([5]; 500 g ai/ha)
40: Plant response rating, Sedge, Umbrella ([6]; 250 g ai/ha) | Plant response rating, Ducksalad ([9]; 62 g ai/ha) | Plant response rating, Ducksalad ([9]; 250 g ai/ha)
